In patent US6410530B1, “Substituted 1,2,3,4-tetrahydronaphthalene derivatives” (AstraZeneca AB, priority 1996, dated 2002):

SMILES	melting point [°C]
CN1CCN(c2cccc3c2C[C@H](NC(=O)c2ccccc2OS(C)(=O)=O)CC3)CC1 [Example 93, (R)-N-[8-(4-Methylpiperazin-1-yl)-1,2,3,4-tetrahydro-2-naphthyl]-2-methylsulfonyloxybenzamide]	144 to 145
CN1CCC(c2cccc3c2C[C@H](NC(=O)c2ccc(C(F)(F)F)cc2)CC3)CC1 [Example 99, (R)-N-[8-(1-Methylpiperidine-4yl)-1,2,3,4-tetrahydro-2-naphthyl]-4-trifluoromethylbenzamide]	163 to 166
CCCCOc1ccc(C(=O)N[C@@H]2CCc3cccc(C4CCN(C)CC4)c3C2)cc1 [Example 100, (R)-N-[8-(1-Methylpiperidin-4-yl)-1,2,3,4-tetrahydro-2-naphthyl]-4-butoxybenzamide]	162 to 164
CN1CCC(c2cccc3c2C[C@H](NC(=O)c2ccc(N4CCOCC4)cc2)CC3)CC1 [Example 101, (R)-N-[8-(1-Methylpiperidin-4-yl)-1,2,3,4-tetrahydro-2-naphthyl]-4-morpholinobenzamide]	196 to 198
CN1CCN(c2cccc3c2C[C@H](N(C)C(=O)c2ccc(C(F)(F)F)cc2)CC3)CC1 [Example 122, (R)-N-Methyl-N-[8-(4-methylpiperazin-1-yl)-1,2,3,4-tetrahydro-2-naphthyl]-4-trifluoromethylbenzamide]	123 to 125

More lines, now with the values ahead:

melting point [°C]	SMILES
127 to 128	CN1CCN(c2cccc3c2CC[C@@H](NC(=O)c2ccc(N4CCOCC4)cc2)C3)CC1 [Example 118, (R)-N-[5-(4-Methylpiperazin-1-yl)-1,2,3,4-tetrahydro-2-naphthyl]-4-morpholinobenzamide]
129 to 131	CN1CCN(c2cccc3c2CC[C@H](NC(=O)c2ccc(N4CCOCC4)cc2)C3)CC1 [Example 119, (S)-N-[5-(4-Methylpiperazin-1-yl)-1,2,3,4-tetrahydro-2-naphthyl]-4-morpholinobenzamide]
190 to 191	CN1CCN(c2cccc3c2C[C@H](NC(=O)c2ccc(N4CCSCC4)cc2)CC3)CC1 [Example 125, (R)-N-[8-(4-Methylpiperazin-1-yl)-1,2,3,4-tetrahydro-2-naphthyl]-4-thiomorpholinobenzamide]
124 to 127	CN1CCN(c2cccc3c2C[C@H](NC(=O)c2ccc(C(=O)N4CCOCC4)cc2)CC3)CC1 [Example 129, (R)-N-[8-(4-Methylpiperazin-1-yl)-1,2,3,4-tetrahydro-2-naphthyl]-4-morpholinocarbonylbenzamide]
